Values quoted from earlier work in patent US9718036B2, “Method of preparing carrier liquids” (The University of Liverpool, priority 2011, dated 2017).
Values after ≈ are worked out from the molar mass of the structure shown.

Conditions: at 20° C.

Which solubility in water does the source give for `CC1(C)C(/C=C(\Cl)C(F)(F)F)C1C(=O)OC(C#N)c1cccc(Oc2ccccc2)c1` (stereo not shown) [λ-cyhalothrin] here?
Its solubility in water is 5 µg/mL (≈ 11.1 µM).
